Where a name gives a salt, the structure may show the parent alone.

For the first data set, the system named is P. protegens Pf-5. In words: Genetic part characterization for P. protegens (promoters, RBSs, terminators, inducible systems; fluorescence reporter, flow cytometry). The note with it: P. protegens Pf-5, pRO1600 plasmid. Type of data set: cell-based, Pseudomonas protegens. An excerpt: Construction and characterization genetic parts for P. protegens. Genetic part libraries were built on a pRO1600-ori plasmid pMR-2 using Gibson assembly (New England Biolabs, Cat # E2611). The fluorescence proteins, GFPmut3b and mRFP1 were used as reporters. The Anderson promoter library on the BioBricks Registry were utilized for the characterization of constitutive promoters (FIGS. 11A-11C). The following combinations of cognate regulators and inducible promoters were characterized. IPTG inducible LacI-Ptac, DAPG inducible PhlF-PPhl, aTc inducible TetR-PTet, 3OC6HSL inducible LuxR-PLux, arabinose inducible AraC-PBAD, cuminic acid inducible CymR-PCym, and naringenin inducible FdeR-PFde were optimized (FIGS. 15A-15C). […] RBS library for GFP was designed using the RBS library calculator at the highest-resolution mode, and the 3′ end of the 16S rRNA sequences were adjusted according to the species (3′-ACCTCCTTA-5′ for P. protegens Pf-5). Terminators for T7 RNAP were characterized by placing a terminator between two fluorescence reporters expressed from a single T7 wild-type promoter located upstream of the first fluorescence protein GFP. The expression of the two fluorescence proteins is enabled by an IPTG-inducible T7 RNAP expression system of the controller strain MR7 (FIGS. 13A-13B). All genetic parts for P. protegens Pf-5 were characterized as follows.
In the case of `CCCC(=O)CC(=O)N[C@H]1CCOC1=O` [3OC6HSL, N-(3-Oxohexanoyl)-L-homoserine lactone, reference compound], the “function of inducible system” value is reported as “functional”.

Consider `CC(C)c1ccc(C(=O)O)cc1` [cuminic acid, Cuminic acid, reference compound], for which the “function of inducible system” value is recorded as “functional”.

`O=C1C[C@@H](c2ccc(O)cc2)Oc2cc(O)cc(O)c21` [naringenin, Naringenin, reference compound]: the “function of inducible system” value was “functional”.

As for `Cc1c2c(c(O)c3c(O)cccc13)C(=O)[C@]1(O)C(=O)C(C(N)=O)=C(O)[C@@H](N(C)C)[C@@H]1C2` [aTc, Anhydrotetracycline hydrochloride, reference compound], the “function of inducible system” value was “functional”.

The same data set, now with this note: synthetic RBS strength in P. protegens Pf-5; plasmid pMR-65, arabinose-inducible system, 7 μM arabinose induction.
On to “RBSp22 (DNA GAATTCTACACTCACGGACAGGAGGGTCGGATG; expressed or natural sequence)”, for which the “Strength (GFP, au)” value is 3977 au.

In the case of “RBSp25 (DNA GAATTCTACACTAACGGACAGCAGGGTCGGATG; expressed or natural sequence)”, the “Strength (GFP, au)” value stood at 3542 au.

Turning to “RBSp4 (DNA CTAGCGCAGGTCCAACGTTTTTCTAAGCCAGGAGGTCATATG; expressed or natural sequence)”, the “Strength (GFP, au)” value is 19490 au.

“RBSp13 (DNA GAATTCTAAGCTAACGGACAGGAGGGTCGGATG; expressed or natural sequence)”: the “Strength (GFP, au)” value worked out at 8918 au.

As for “RBSp15 (DNA GAATTCTCAACTAACGGACAGGAGGGTCCGATG; expressed or natural sequence)”, the “Strength (GFP, au)” value was 7596 au.

Consider “RBSp18 (DNA GAATTCTCAGCTAACGGACAGGAGGGTCGGATG; expressed or natural sequence)”, for which the “Strength (GFP, au)” value is listed as 5915 au.

Consider “RBSp20 (DNA GAATTCTCAGCTCACGGACAGGAGGGTCGGATG; expressed or natural sequence)”, for which the “Strength (GFP, au)” value is given as 4426 au.

As to “RBSp24 (DNA GAATTCTCAACTCACGGACAGGAGGGTCGGATG; expressed or natural sequence)”, the “Strength (GFP, au)” value was 3661 au.

In the case of “RBSp1 (DNA CTAGCGCAGGTCCAACGTTTTTCTAAGCAAGGAGGTCATATG; expressed or natural sequence)”, the “Strength (GFP, au)” value came to 25090 au.

In the case of “RBSp14 (DNA GAATTCTCAGCTAACGGACAGGAGGGTCCGATG; expressed or natural sequence)”, the “Strength (GFP, au)” value was determined as 8766 au.

With “RBSp7 (DNA GAATTCTAAACTAACGGACAGGAGGGTCCGATG; expressed or natural sequence)”, the “Strength (GFP, au)” value amounted to 13390 au.

As for “RBSp12 (DNA GAATTCTCAACTAACGGACAGGAGGGTCCGATG; expressed or natural sequence)”, the “Strength (GFP, au)” value came to 9590 au.

For “R135135 (DNA CTAGCGAAGCTCCAACGTTTTTCTAAGCAAGGAGGTCATATG; chemistry not fully specified)”, the “Strength (GFP, au)” value came out at 17990 au.

As to “RBSp28 (DNA CTAGCGCAGGTCCAACCTTTTTCTAAGCAACTAGGTCATATG; expressed or natural sequence)”, the “Strength (GFP, au)” value came to 389 au.

For “RBSp30 (DNA GAATTCTACGCTCACGGACAGCAGGGTCGGATG; expressed or natural sequence)”, the “Strength (GFP, au)” value was determined as 221 au.

Take “RBSp8 (DNA GAATTCTAAGCTAACGGACAGGAGGGTCCGATG; expressed or natural sequence)”: the “Strength (GFP, au)” value was 12790 au.

On to “RBSp9 (DNA GAATTCTTAACTAACGGACAGGAGGGTCCGATG; expressed or natural sequence)”, for which the “Strength (GFP, au)” value came to 11490 au.

“RBSp23 (DNA GAATTCTAAGCTCACGGACAGGAGGGTCGGATG; expressed or natural sequence)”: the “Strength (GFP, au)” value is reported as 3829 au.

For “RBSp6 (DNA GAATTCTACACTAACGGACAGGAGGGTCCGATG; expressed or natural sequence)”, the “Strength (GFP, au)” value came out at 14490 au.

For “RBSp17 (DNA GAATTCTCAACTAACGGACAGGAGATATACATATG; expressed or natural sequence)”, the “Strength (GFP, au)” value was 5939 au.

Consider “RBSp21 (DNA GAATTCTCAACTAACGGACAGGAGGGTCGGGATG; expressed or natural sequence)”, for which the “Strength (GFP, au)” value came to 4110 au.

As for “RBSp10 (DNA GAATTCTACACTAACGGACAGGAGGGTCGGATG; expressed or natural sequence)”, the “Strength (GFP, au)” value came out at 11090 au.

In the case of “RBSp31 (DNA GAATTCTCCGCTCACGGACAGGAGGGTCCGATG; expressed or natural sequence)”, the “Strength (GFP, au)” value is given as 23.3 au.

In the case of “R135133 (DNA CTAGCGAAGGTCCAACGTTTTTCTAAGCCAGGAGGTCATATG; chemistry not fully specified)”, the “Strength (GFP, au)” value worked out at 19690 au.

On to “R135132 (DNA CTAGCGAAGGTCCAACGTTTTTCTAAGCAAGGAGGTCATATG; chemistry not fully specified)”, for which the “Strength (GFP, au)” value is recorded as 21590 au.

As to “RBSp27 (DNA GAATTCTCAGCTAACGGACAGCAGGGTCGGATG; expressed or natural sequence)”, the “Strength (GFP, au)” value was 1265 au.

In the case of “RBSp19 (DNA GAATTCTAAACTAACGGACAGGAGGGTCGGATG; expressed or natural sequence)”, the “Strength (GFP, au)” value worked out at 4867 au.

As for “RBSp29 (DNA CTAGCGAAGGTCCAACCTTTTTCTAAGCCAGTAGGTCATATG; expressed or natural sequence)”, the “Strength (GFP, au)” value is listed as 377 au.

As for “RBSp11 (DNA GAATTCTACGCTAACGGACAGGAGGGTCCGATG; expressed or natural sequence)”, the “Strength (GFP, au)” value came out at 10390 au.

Regarding “RBSp16 (DNA GAATTCTACGCTAACGGACAGGAGGGTCGGATG; expressed or natural sequence)”, the “Strength (GFP, au)” value is given as 6055 au.

Another data set deals with R. sp. IRBG74. In words: Genetic part characterization for Rhizobia (promoters, RBSs, terminators, inducible systems; fluorescence reporter, flow cytometry). Type of data set: cell-based, Rhizobium sp. The note with it: synthetic RBS strength in R. sp. IRBG74; plasmid pMR-40, IPTG-inducible system, 1 mM IPTG induction. From the text: Construction and characterization genetic parts for Rhizobia. Genetic part libraries were built on a pBBR1-ori plasmid pMR-1 using Gibson assembly (New England Biolabs, Cat # E2611). The fluorescence proteins, GFPmut3b and mRFP1 were used as reporters. The Anderson promoter library (Anderson, J. et al. BglBricks: A flexible standard for biological part assembly. 4, 1 (2010)) on the BioBricks Registry were utilized for the characterization of constitutive promoters (FIGS. 11A-11C). To characterize inducible promoters, a regulator protein is constitutively expressed by the PlacIq promoter, and GFP expression is driven by a cognate inducible promoter from the opposite direction, facilitating replacement of the reporter with gene of interest (e.g., T7 RNAP and nifA) and transfer of the controller unit across different plasmid backbones for diverse microbes. The following combinations of cognate regulators and inducible promoters were characterized. IPTG inducible LacI-A1lacO1, DAPG inducible PhlF-PPhl, aTc inducible TetR-PTet, 3OC6HSL inducible LuxR-PLux, salicylic acid inducible NahR-PSal, and cuminic acid inducible CymR-PCym systems were optimized for R. sp. IRBG74 (FIG. 14). Opine inducible OccR-Pocc, and nopaline inducible NocR-Pnoc systems were optimized for A. caulinodans (FIGS. 20A-20F and Tables 9 and 10). For RBS characterization, an IPTG-inducible GFP expression plasmid pMR-40 was used and GFP was expressed to the highest levels with 1 mM IPTG (FIGS. 12A-12B). RBS library for GFP was designed using the RBS library calculator at the highest-resolution mode, and the 3′ end of the 16S rRNA sequences were adjusted according to the species (3′-ACCTCCTTC-5′ for R. sp. IRBG74). Terminators for T7 RNAP were characterized by placing a terminator between two fluorescence reporters expressed from a single T7 wild-type promoter located upstream of the first fluorescence protein GFP. The expression of the two fluorescence proteins is enabled by the controller strain MR18 encoding the IPTG-inducible T7 RNAP system by 1 mM IPTG (FIGS. 13A-13B). The terminator strength (Ts) was determined by normalizing fluorescence levels of a terminator construct by a reference construct pMR-66 where a 40 bp spacer was placed between the reporters. All genetic parts for Rhizobia were characterized as follows.
As for “RBST-13 (DNA TAACAATTTCACACATCTAGAGCTAATCTTCGCGTACTAAAAAGGCAAGTAATG; chemistry not fully specified)”, the “Strength (GFP, au)” value amounted to 895.5 au.

For “RBST-16 (DNA TAACAATTTCACACATCTAGAGCTAATCATCTCGTACTAATAAGGCAAGTAATG; chemistry not fully specified)”, the “Strength (GFP, au)” value turned out to be 532 au.

“RB5r9 (DNA TAACAATTTCACACATCTAGAGCTAATCATCTCGTACTAATGAGGCAAGTAATG; chemistry not fully specified)”: the “Strength (GFP, au)” value is reported as 1593.5 au.

Take “RBST-11 (DNA TAACAATTTCACACATCTAGAGCTAATCATCGCGTACTCACGAGGCAAGTAATG; chemistry not fully specified)”: the “Strength (GFP, au)” value was 1554 au.

On to “RBST-20 (DNA TAACAATTTCACACATCTAGAGCTAATCATCTCGTACTAACGAGGCAAGTAATG; chemistry not fully specified)”, for which the “Strength (GFP, au)” value is listed as 248 au.

Regarding “RBST-21 (DNA TAACAATTTCACACATCTAGAGCTAATCATCGCGTACTCAGCAGGCAAGTAATG; chemistry not fully specified)”, the “Strength (GFP, au)” value came out at 183 au.

With “RBST-24 (DNA TAACAATTTCACACATCTAGAGCTAATCTTCTCGTACTAACAAGGCAAGTAATG; chemistry not fully specified)”, the “Strength (GFP, au)” value is recorded as 75.15 au.

Take “RBST-30 (DNA TAACAATTTCACACATCTAGAGCTAATCTTCGCGTACTAACAACGCAAGTAATG; chemistry not fully specified)”: the “Strength (GFP, au)” value is reported as 2.95 au.

The values are drawn from patent US12281299B2, “Control of nitrogen fixation in rhizobia that associate with cereals” (Massachusetts Institute of Technology, priority 2019, dated 2025).
